# From patent US12465629B2, “Prevention and treatment of organ injuries” (Farsight Medical Technology (Shanghai) Co., Ltd., priority 2020, dated 2025)
# Columns and labels:
# [1] = test system: LPS induced lung injury in C57BL/6 mice; test: Acute lung injury model study (LPS induced) in mice; type: in vivo
# Method: Compound I was tested in an in vivo mouse model for acute lung injury.
# LPS (lipopolysaccharide) was administered to induce lung injury in C57BL/6 mice. LPS elicits an acute inflammatory response in the lung, resulting in progressive damage, and necrosis of lung tissue including the bronchial wall, and alveoli.
# LPS (0.3 mg/kg) was administered directly to the trachea of anaesthetized mice in study groups 2 to 6. […]
# Non-invasive lung function tests including respiratory frequency, tidal volume, maximum inspiratory speeds and maximal expiratory speeds were determined on Day 2 and end of the study, 24 h after LPS was initially administered.
# A significant impact was moreover observed with regards to the pathology of the lung tissue of the mice subjects. […] The histological examination comprised random selection of visual field areas which were blind scored for lung injury according to the following criteria: 1) alveolar congestion, 2) hemorrhage, 3) infiltration of inflammatory cells, and 4) thickness of alveolar wall according to a scale of 0 (minimal damage), 1, (mild damage), 2 (moderate damage), 3 (severe damage), and 4 (maximal damage). […]
# [2] = test system: LPS induced lung injury in SD rats; test: Acute lung injury model study II (LPS induced) in rats; type: in vivo; details: 1 and 3 mg/kg iv (G4, G5) at 1 h, 7 h, 24 h after LPS
# Method: A study was conducted to assess the effect of combined administration of dexamethasone and Compound I in an acute lung injury model. LPS (lipopolysaccharide) was administered to induce lung injury in SD rats (SPF grade male, body weight 180-200 g).
# Study group 1 (G1) served as sham control group (no induced acute lung injury) and Group 2 (G2) served as model group (acute lung injury, no treatment).
# Dexamethasone, prepared as an aqueous solution, prepared by dissolving the appropriate amount in saline, was used as a positive control in group 3 (G3), and was also administered to group 6 (G6) and group 7 (G7), which also received Compound I. A lyophilized powder of Compound I, was dissolved in an aqueous reconstitution solution comprising Tween 80, acetic acid, sodium acetate, and further diluted with saline before application.
# The animals were weighed. LPS (5 mg/kg) was then injected via the trachea of the rat after anesthesia and surgery to expose the trachea (all groups except for G1 where no LPS was injected). […]
# Non-invasive lung function tests were determined at 24 hours and at 48 hours (end of the study). […]
# Whole lung tissue samples were taken at end of study for histological examination. The histological examination comprised random selection of visual field areas which were blind scored for lung injury. […]
# [3] = Comparative pharmacokinetic study, tissue distribution; design: species or system SD rats; details: rat, in vivo, iv, 3 mg/kg
# Method: At the respective time points, blood samples and respective organ/tissues were collected and processed according to standard procedures The concentration of the respective drugs in the respective tissues were then measured using a validated LC-Ms/Ms method.
smiles,measurement,setting,value
"C/C=C/C[C@@H](C)[C@@H](O)[C@H]1C(=O)N[C@@H](CC)C(=O)N(C)[C@H](OCCN(C)C)C(=O)N(C)[C@@H](CC(C)C)C(=O)N[C@@H](C(C)C)C(=O)N(C)[C@@H](CC(C)C)C(=O)N[C@@H](C)C(=O)N[C@H](C)C(=O)N(C)[C@@H](CC(C)C)C(=O)N(C)[C@@H](CC(C)C)C(=O)N(C)[C@@H](C(C)C)C(=O)N1C [Compound I, [(R)-2′(2-dimethylaminoethoxy)-Sar]^3 cyclosporin A]","Non-invasive lung function tests (tidal volume, breath rate, peak inspiratory and expiratory flow)","[1]; ip 0.5 h and 6 h after LPS, 1, 5, 10 mg/kg, in particular 10 mg/kg, 24 h after LPS, FIG. 1",statistically relevant improvements in some of the lung function tests
same,"Histological lung injury scoring (bronchial, arteriole and alveolar tissue)","[1]; ip 0.5 h and 6 h after LPS, all doses 1, 5, 10 mg/kg, vs model group G2, FIG. 2","significant effect in terms of decreasing the severity of injuries to bronchial, arteriole and alveolar tissue"
same,Total bronchial and arteriole injury scoring,[2]; FIG. 5B,performed significantly better than the model (G2) and the positive group (G3)
same,Total alveolar injury scoring,"[2]; vs model G2, FIG. 5A",significant positive effect in terms of decreasing the severity of injuries to alveolar tissue
same,Tmax,"[3]; both sexes, Sprague-Dawley (SD)",30 min
same,Tissue distribution,[3],"distribute to a greater degree to organ tissues, such as the kidney, and the lung"
